# Laboratory results reported in patent US11434220B2, “Use of physiological cooling active ingredients, and compositions comprising such active ingredients” (BASF SE, priority 2017, dated 2022).
# Legend:
# human TRPM8 receptor = molecular target: T1, human TRPM8 receptor (Homo sapiens, UniProt Q7Z2W7); test: Assay for TRPM8 modulators: Ca2+ fluorescence (Fluo-4) in HEK293-TRPM8 test cells; format: cell-based; settings: HEK293 cells stably transfected with human TRPM8, agonism, triplicates, 0.1-200 μM; read-out: Activity In vitro assay (EC50)
# T1 construct: expressed in transfected cells
# Description: The test cell system produced, with human TRPM8 DNA, was a stably transfected HEK293 cell line. Preference is given here to HEK293 which, via the plasmid introduced, offers the option of induction of TRPM8 expression by means of tetracycline.
# The agonism or antagonism of the receptor can be quantified by means of a Ca^2+-sensitive dye (e.g. FURA, Fluo-4 etc.). Agonists on their own result in an increase in the Ca^2+ signal; antagonists in the presence of menthol, for example, result in a reduction in the Ca^2+ signal (in each case detected by means of the Fluo-4 dye which is caused to have different fluorescence properties by Ca^2+).
# First of all, in a manner known per se, a fresh culture of transformed HEK cells is produced in cell culture bottles. The HEK293-TRPM8 test cells are detached from the cell culture bottles by means of trypsin and 40 000 cells/well are sown with 100 μl of medium in 96-hole plates (Greiner #655948 poly-D-lysine-coated). For induction of the TRPM8 receptor, tetracycline is added to the growth medium (DMEM/HG, 10% FCS tetracycline-free, 4 mM L-glutamine, 15 μg/mL blasticidin, 100 μg/mL hygromycin B, 1 μg/mL tetracycline). The next day, the cells are laden with Fluo-4AM dye and the test is conducted.
# The test substances are used in the assay in triplicates in concentrations of 0.1-200 μM. Normally, the compounds are kept in DMSO solutions and diluted down for the assay to a maximum DMSO concentration of 2%.
# [1] = test system: oral cavity of trained panelists; test: Time-intensity profile of cooling after 40 s mouth rinse with sample solution; format: in vivo, human; settings: for Cooling intensity: 40 s mouth rinse; for Onset of cooling activity: time-intensity profile, with respect to WS3
# Experimental: To establish a time-intensity profile, the oral cavity of trained panelists (n=8 to 11) was rinsed for 40 seconds with a mouthful of a sample solution (2 ppm of FEMA 4809 or 50 ppm of FEMA 4496 or 50 ppm of 1) to 5)). Subsequently, the cooling intensity perceived was assessed at defined time intervals using a scale.
# trained panelists = test: Sensory assessment: cooling intensity of inventive amides in 5% sugar solution compared to FEMA 4809; format: in vivo, human; settings: scale 1 (very weak) to 9 (very strong), n=10 to 11
# Experimental: […] What were assessed here were initial cooling intensity, overall cooling intensity and long-lasting action on a scale from 1 (very weak) to 9 (very strong).
# [2] = time 0 sec; 2 ppm FEMA 4809, 50 ppm FEMA 4496, 50 ppm 1) to 5)
# [3] = time 40 sec; 2 ppm FEMA 4809, 50 ppm FEMA 4496, 50 ppm 1) to 5)
# [4] = time 70 sec; 2 ppm FEMA 4809, 50 ppm FEMA 4496, 50 ppm 1) to 5)
# [5] = time 100 sec; 2 ppm FEMA 4809, 50 ppm FEMA 4496, 50 ppm 1) to 5)
# [6] = time 130 sec; 2 ppm FEMA 4809, 50 ppm FEMA 4496, 50 ppm 1) to 5)
# [7] = time 160 sec; 2 ppm FEMA 4809, 50 ppm FEMA 4496, 50 ppm 1) to 5)
# [8] = time 190 sec; 2 ppm FEMA 4809, 50 ppm FEMA 4496, 50 ppm 1) to 5)
# [9] = time 220 sec; 2 ppm FEMA 4809, 50 ppm FEMA 4496, 50 ppm 1) to 5)
# [10] = time 250 sec; 2 ppm FEMA 4809, 50 ppm FEMA 4496, 50 ppm 1) to 5)
# [11] = time 280 sec; 2 ppm FEMA 4809, 50 ppm FEMA 4496, 50 ppm 1) to 5)
# [12] = time 310 sec; 2 ppm FEMA 4809, 50 ppm FEMA 4496, 50 ppm 1) to 5)
# [13] = time 340 sec; 2 ppm FEMA 4809, 50 ppm FEMA 4496, 50 ppm 1) to 5)
# [14] = time 640 sec; 2 ppm FEMA 4809, 50 ppm FEMA 4496, 50 ppm 1) to 5)
# [15] = time 940 sec; 2 ppm FEMA 4809, 50 ppm FEMA 4496, 50 ppm 1) to 5)
# [16] = time 1240 sec; 2 ppm FEMA 4809, 50 ppm FEMA 4496, 50 ppm 1) to 5)
# T1 sequence (Q7Z2W7 whole entry): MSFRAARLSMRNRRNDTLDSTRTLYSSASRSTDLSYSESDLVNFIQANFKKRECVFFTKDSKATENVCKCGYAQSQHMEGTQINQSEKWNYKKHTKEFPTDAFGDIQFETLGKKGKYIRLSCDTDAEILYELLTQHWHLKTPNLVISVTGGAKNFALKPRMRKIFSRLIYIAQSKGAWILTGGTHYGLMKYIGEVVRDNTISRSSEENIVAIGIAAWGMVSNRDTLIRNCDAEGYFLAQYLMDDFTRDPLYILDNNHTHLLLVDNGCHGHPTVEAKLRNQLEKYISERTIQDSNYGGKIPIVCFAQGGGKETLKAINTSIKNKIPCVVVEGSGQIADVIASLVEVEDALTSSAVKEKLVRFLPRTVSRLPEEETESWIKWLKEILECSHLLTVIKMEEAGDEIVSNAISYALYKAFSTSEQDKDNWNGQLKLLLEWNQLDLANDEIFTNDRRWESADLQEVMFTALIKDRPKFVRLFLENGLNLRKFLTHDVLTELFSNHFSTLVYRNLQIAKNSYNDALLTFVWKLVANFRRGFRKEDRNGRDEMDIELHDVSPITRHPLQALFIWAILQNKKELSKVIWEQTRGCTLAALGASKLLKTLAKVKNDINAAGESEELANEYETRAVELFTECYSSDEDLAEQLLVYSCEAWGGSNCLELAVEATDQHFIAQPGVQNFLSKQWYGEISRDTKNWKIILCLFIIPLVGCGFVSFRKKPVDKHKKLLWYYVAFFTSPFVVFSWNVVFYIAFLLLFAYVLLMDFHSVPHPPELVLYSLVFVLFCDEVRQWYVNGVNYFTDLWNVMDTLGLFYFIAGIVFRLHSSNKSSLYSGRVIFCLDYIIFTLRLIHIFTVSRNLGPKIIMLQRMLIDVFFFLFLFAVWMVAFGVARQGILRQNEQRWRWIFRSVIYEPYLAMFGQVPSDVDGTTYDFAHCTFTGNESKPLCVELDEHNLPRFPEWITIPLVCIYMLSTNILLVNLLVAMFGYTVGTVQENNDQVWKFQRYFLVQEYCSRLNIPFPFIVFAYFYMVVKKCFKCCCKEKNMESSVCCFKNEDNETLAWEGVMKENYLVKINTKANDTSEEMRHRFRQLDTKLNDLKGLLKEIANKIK
smiles,measurement,setting,value
COc1ccc(OCC(=O)N(c2cc[nH]n2)C2CCSC2)cc1 (stereo not shown) [2-(4-methoxyphenoxy)-N-(1H-pyrazol-3-yl)-N-tetrahydrothiophen-3-yl-acetamide],EC50,human TRPM8 receptor,10 µM
"CSCCN(C(=O)/C=C/c1ccc2c(c1)OCO2)c1ccccn1 [5), (E)-3-(1,3-benzodioxol-5-yl)-N-(2-methylsulfanylethyl)-N-(2-pyridyl)prop-2-enamide]",Cooling intensity,[1]; [2],0.0
same,Cooling intensity,[1]; [3],5.7
same,Cooling intensity,[1]; [4],6.2
same,Cooling intensity,[1]; [5],6.0
same,Cooling intensity,[1]; [6],5.6
same,Cooling intensity,[1]; [7],5.6
same,Cooling intensity,[1]; [8],5.2
same,Cooling intensity,[1]; [9],5.0
same,Cooling intensity,[1]; [10],4.9
same,Cooling intensity,[1]; [11],4.6
same,Cooling intensity,[1]; [12],4.5
same,Cooling intensity,[1]; [13],4.3
same,Cooling intensity,[1]; [14],3.1
same,Cooling intensity,[1]; [15],1.9
same,Cooling intensity,[1]; [16],1.1
CCN(CCSC)C(=O)/C=C/c1ccc(C)cc1 [(E)-N-ethyl-N-(2-methylsulfanylethyl)-3-(p-tolyl)prop-2-enamide],EC50,human TRPM8 receptor,10 µM
"CCNC(=O)C1CC(C)CCC1C(C)C (stereo not shown) [WS3, N-ethylmenthane-3-carboxamide]",Cooling intensity,[1]; [2],0
same,Cooling intensity,[1]; [3],4.3
same,Cooling intensity,[1]; [4],4.3
same,Cooling intensity,[1]; [5],4.1
same,Cooling intensity,[1]; [6],3.7
same,Cooling intensity,[1]; [7],3.4
same,Cooling intensity,[1]; [8],3.1
same,Cooling intensity,[1]; [9],2.9
same,Cooling intensity,[1]; [10],2.8
same,Cooling intensity,[1]; [11],2.4
same,Cooling intensity,[1]; [12],2.3
same,Cooling intensity,[1]; [13],2.1
same,Cooling intensity,[1]; [14],1.2
same,Cooling intensity,[1]; [15],0.5
same,Cooling intensity,[1]; [16],0.3
COc1ccc(/C=C/C(=O)N(c2ccsc2)C2CCCCC2)cc1 [(E)-N-cyclohexyl-3-(4-methoxyphenyl)-N-(3-thienyl)prop-2-enamide],EC50,human TRPM8 receptor,25 µM
COc1ccc(OCC(=O)N(CCSC)c2ccccc2)cc1 [2-(4-methoxyphenoxy)-N-(2-methylsulfanylethyl)-N-phenyl-acetamide],EC50,human TRPM8 receptor,30 µM
Cc1ccc(OCC(=O)N(c2ccsc2)C2CCCCC2)cc1 [N-cyclohexyl-2-(4-methylphenoxy)-N-(3-thienyl)acetamide],EC50,human TRPM8 receptor,30 µM
Cc1ccc(OCC(=O)N(c2ccccc2)C2CCOC2)cc1 (stereo not shown) [2-(4-methylphenoxy)-N-phenyl-N-tetrahydrofuran-3-yl-acetamide],EC50,human TRPM8 receptor,25 µM
COc1ccc(/C=C/C(=O)N(CCSC)c2ccccc2)cc1 [(E)-3-(4-methoxyphenyl)-N-(2-methylsulfanylethyl)-N-phenyl-prop-2-enamide],EC50,human TRPM8 receptor,25 µM
"CSCCN(C(=O)/C=C/c1ccc2c(c1)OCO2)c1ccccn1 [(E)-3-(1,3-benzodioxol-5-yl)-N-(2-methylsulfanylethyl)-N-(2-pyridyl)prop-2-enamide]",Initial cooling effect,trained panelists; 2 ppm in 5% sugar solution,3.4
same,Long-lasting action,trained panelists; 2 ppm in 5% sugar solution,4.3
same,Overall cooling intensity,trained panelists; 2 ppm in 5% sugar solution,4.6
same,Initial cooling effect,trained panelists; 20 ppm in 5% sugar solution,6.2
same,Long-lasting action,trained panelists; 20 ppm in 5% sugar solution,7.5
same,Overall cooling intensity,trained panelists; 20 ppm in 5% sugar solution,7.8
Cc1ccc(OCC(=O)N(c2ccccc2)C2CCSC2)cc1 (stereo not shown) [2-(4-methylphenoxy)-N-phenyl-N-tetrahydrothiophen-3-yl-acetamide],EC50,human TRPM8 receptor,12.5 µM
Cc1ccc(/C=C/C(=O)N(CC2CCCO2)c2ccccc2)cc1 (stereo not shown) [(E)-N-phenyl-3-(p-tolyl)-N-(tetrahydrofuran-2-ylmethyl)prop-2-enamide],EC50,human TRPM8 receptor,5 µM
COc1ccc(/C=C/C(=O)N(CC2CCCO2)c2ccccc2)cc1 (stereo not shown) [(E)-3-(4-methoxyphenyl)-N-phenyl-N-(tetrahydrofuran-2-ylmethyl)prop-2-enamide],EC50,human TRPM8 receptor,25 µM
CC1CCC(C(C)C)C(C(=O)Nc2ccc(CC#N)cc2)C1 (stereo not shown) [FEMA 4496],Cooling intensity,[1]; [2],0
same,Cooling intensity,[1]; [3],1.9
same,Cooling intensity,[1]; [4],2.3
same,Cooling intensity,[1]; [5],2.4
same,Cooling intensity,[1]; [6],2.3
same,Cooling intensity,[1]; [7],2.3
same,Cooling intensity,[1]; [8],2.3
same,Cooling intensity,[1]; [9],2.2
same,Cooling intensity,[1]; [10],2.2
same,Cooling intensity,[1]; [11],2.2
same,Cooling intensity,[1]; [12],2.1
same,Cooling intensity,[1]; [13],2.1
same,Cooling intensity,[1]; [14],2.0
same,Cooling intensity,[1]; [15],1.5
same,Cooling intensity,[1]; [16],1.2
same,Onset of cooling activity,[1],distinctly retarded onset of the cooling action
Cc1ccc(/C=C/C(=O)N(CC2CCCO2)c2cc[nH]n2)cc1 (stereo not shown) [(E)-3-(p-tolyl)-N-(1H-pyrazol-3-yl)-N-(tetrahydrofuran-2-ylmethyl)prop-2-enamide],EC50,human TRPM8 receptor,10 µM
"CSCCN(C(=O)/C=C/c1ccc2c(c1)OCO2)c1ccccc1 [(E)-3-(1,3-benzodioxol-5-yl)-N-(2-methylsulfanylethyl)-N-phenyl-prop-2-enamide]",Initial cooling effect,trained panelists; 20 ppm in 5% sugar solution,2.7
same,Long-lasting action,trained panelists; 20 ppm in 5% sugar solution,4.7
same,Overall cooling intensity,trained panelists; 20 ppm in 5% sugar solution,4.7
"Cc1ccc(/C=C/C(=O)N(c2ccccn2)C2CCSC2)cc1 (stereo not shown) [3), (E)-3-(p-tolyl)-N-(2-pyridyl)-N-tetrahydrothiophen-3-ylprop-2-enamide]",Cooling intensity,[1]; [2],0.0
same,Cooling intensity,[1]; [3],4.0
same,Cooling intensity,[1]; [4],4.0
same,Cooling intensity,[1]; [5],4.0
same,Cooling intensity,[1]; [6],3.9
same,Cooling intensity,[1]; [7],3.7
same,Cooling intensity,[1]; [8],3.7
same,Cooling intensity,[1]; [9],3.5
same,Cooling intensity,[1]; [10],3.4
same,Cooling intensity,[1]; [11],3.3
same,Cooling intensity,[1]; [12],3.2
same,Cooling intensity,[1]; [13],3.2
same,Cooling intensity,[1]; [14],2.2
same,Cooling intensity,[1]; [15],1.3
same,Cooling intensity,[1]; [16],0.7
Cc1ccc(OCC(=O)N(Cc2cccs2)c2ccn[nH]2)cc1 [FEMA 4809],Initial cooling effect,trained panelists; 2 ppm in 5% sugar solution,3.9
same,Long-lasting action,trained panelists; 2 ppm in 5% sugar solution,7.5
same,Overall cooling intensity,trained panelists; 2 ppm in 5% sugar solution,7.3
same,Cooling intensity,[1]; [2],0
same,Cooling intensity,[1]; [3],2.7
same,Cooling intensity,[1]; [4],2.8
same,Cooling intensity,[1]; [5],2.5
same,Cooling intensity,[1]; [6],2.6
same,Cooling intensity,[1]; [7],2.6
same,Cooling intensity,[1]; [8],2.7
same,Cooling intensity,[1]; [9],2.8
same,Cooling intensity,[1]; [10],2.7
same,Cooling intensity,[1]; [11],2.8
same,Cooling intensity,[1]; [12],2.9
same,Cooling intensity,[1]; [13],2.8
same,Cooling intensity,[1]; [14],2.6
same,Cooling intensity,[1]; [15],2.6
same,Cooling intensity,[1]; [16],2.1
same,Onset of cooling activity,[1],distinctly retarded onset of the cooling action
"CSCCN(C(=O)/C=C/c1ccc2c(c1)OCO2)c1cc[nH]n1 [(E)-3-(1,3-benzodioxol-5-yl)-N-(2-methylsulfanylethyl)-N-(1H-pyrazol-3-yl)prop-2-enamide]",Initial cooling effect,trained panelists; 5 ppm in 5% sugar solution,3.1
same,Long-lasting action,trained panelists; 5 ppm in 5% sugar solution,4.6
same,Overall cooling intensity,trained panelists; 5 ppm in 5% sugar solution,4.8
same,Initial cooling effect,trained panelists; 20 ppm in 5% sugar solution,3.7
same,Long-lasting action,trained panelists; 20 ppm in 5% sugar solution,6.6
same,Overall cooling intensity,trained panelists; 20 ppm in 5% sugar solution,6.6
Cc1ccc(/C=C/C(=O)N(c2ccccc2)C2CCOC2)cc1 (stereo not shown) [(E)-N-phenyl-3-(p-tolyl)-N-tetrahydrofuran-3-ylprop-2-enamide],Initial cooling effect,trained panelists; 20 ppm in 5% sugar solution,4.3
same,Long-lasting action,trained panelists; 20 ppm in 5% sugar solution,6.1
same,Overall cooling intensity,trained panelists; 20 ppm in 5% sugar solution,5.7
CSCCN(C(=O)/C=C/c1ccc(C)cc1)c1ccccn1 [(E)-N-(2-methylsulfanylethyl)-3-(p-tolyl)-N-(2-pyridyl)prop-2-enamide],Initial cooling effect,trained panelists; 20 ppm in 5% sugar solution,4
same,Long-lasting action,trained panelists; 20 ppm in 5% sugar solution,5.3
same,Overall cooling intensity,trained panelists; 20 ppm in 5% sugar solution,5.7
